Counter-ions that a name gives are not always drawn.

What all share (assay type): cell-based
Assay [1] has as its target T1, human TLR7 (Homo sapiens, UniProt Q9NYK1).
T1 construct: host or cells: HEK-Blue cells
T1 sequence (Q9NYK1 27-1049): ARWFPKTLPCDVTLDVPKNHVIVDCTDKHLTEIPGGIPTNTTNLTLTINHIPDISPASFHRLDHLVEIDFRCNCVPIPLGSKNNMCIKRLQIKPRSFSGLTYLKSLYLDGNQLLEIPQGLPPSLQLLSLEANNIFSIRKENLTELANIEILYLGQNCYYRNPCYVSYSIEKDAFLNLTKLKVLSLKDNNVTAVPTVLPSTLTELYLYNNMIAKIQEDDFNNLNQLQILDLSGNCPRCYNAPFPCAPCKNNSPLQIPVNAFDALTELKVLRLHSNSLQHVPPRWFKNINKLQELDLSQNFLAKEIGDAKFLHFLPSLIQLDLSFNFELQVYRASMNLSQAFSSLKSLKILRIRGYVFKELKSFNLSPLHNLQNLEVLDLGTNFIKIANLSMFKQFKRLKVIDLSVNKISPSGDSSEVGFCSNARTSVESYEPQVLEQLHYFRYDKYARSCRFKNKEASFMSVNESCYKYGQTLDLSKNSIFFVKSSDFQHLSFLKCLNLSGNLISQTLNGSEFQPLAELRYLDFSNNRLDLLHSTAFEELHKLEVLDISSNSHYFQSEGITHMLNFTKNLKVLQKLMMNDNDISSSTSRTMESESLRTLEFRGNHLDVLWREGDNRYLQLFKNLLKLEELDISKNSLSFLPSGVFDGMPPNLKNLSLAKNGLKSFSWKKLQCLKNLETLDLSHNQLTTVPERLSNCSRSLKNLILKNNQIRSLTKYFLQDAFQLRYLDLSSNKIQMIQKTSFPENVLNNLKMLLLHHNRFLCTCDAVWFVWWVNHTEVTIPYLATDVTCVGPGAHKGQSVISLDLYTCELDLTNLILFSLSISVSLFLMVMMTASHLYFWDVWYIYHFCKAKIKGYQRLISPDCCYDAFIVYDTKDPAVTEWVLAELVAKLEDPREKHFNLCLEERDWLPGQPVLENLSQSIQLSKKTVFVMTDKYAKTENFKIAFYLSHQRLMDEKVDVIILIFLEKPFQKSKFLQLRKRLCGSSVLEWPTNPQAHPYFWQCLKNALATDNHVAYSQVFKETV
Nature of the assay: TLR7 inhibition reporter assay (HEK-Blue cells, SEAP reporter, gardiquimod stimulation). The settings on record: HEK-Blue cells overexpressing human TLR7, SEAP reporter, gardiquimod 7.5 μM; read-out: TLR7 IC50. The method, boiled down:
(§1)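 Dose–response from 0.05 nM to 50 μM was run in HEK-Blue human TLR7, TLR8 and TLR9 reporter cells. After 30 min at room temperature with compound, ligand was added (TLR7 gardiquimod 7.5 μM; TLR8 R848 15.9 μM; TLR9 ODN2006 5 nM) and SEAP measured next day, at 22 h.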

For assay [2], the target named is T2, human TLR9 (Homo sapiens, UniProt Q9NR96).
T2 construct: host or cells: HEK-Blue cells
T2 sequence (Q9NR96 26-1032): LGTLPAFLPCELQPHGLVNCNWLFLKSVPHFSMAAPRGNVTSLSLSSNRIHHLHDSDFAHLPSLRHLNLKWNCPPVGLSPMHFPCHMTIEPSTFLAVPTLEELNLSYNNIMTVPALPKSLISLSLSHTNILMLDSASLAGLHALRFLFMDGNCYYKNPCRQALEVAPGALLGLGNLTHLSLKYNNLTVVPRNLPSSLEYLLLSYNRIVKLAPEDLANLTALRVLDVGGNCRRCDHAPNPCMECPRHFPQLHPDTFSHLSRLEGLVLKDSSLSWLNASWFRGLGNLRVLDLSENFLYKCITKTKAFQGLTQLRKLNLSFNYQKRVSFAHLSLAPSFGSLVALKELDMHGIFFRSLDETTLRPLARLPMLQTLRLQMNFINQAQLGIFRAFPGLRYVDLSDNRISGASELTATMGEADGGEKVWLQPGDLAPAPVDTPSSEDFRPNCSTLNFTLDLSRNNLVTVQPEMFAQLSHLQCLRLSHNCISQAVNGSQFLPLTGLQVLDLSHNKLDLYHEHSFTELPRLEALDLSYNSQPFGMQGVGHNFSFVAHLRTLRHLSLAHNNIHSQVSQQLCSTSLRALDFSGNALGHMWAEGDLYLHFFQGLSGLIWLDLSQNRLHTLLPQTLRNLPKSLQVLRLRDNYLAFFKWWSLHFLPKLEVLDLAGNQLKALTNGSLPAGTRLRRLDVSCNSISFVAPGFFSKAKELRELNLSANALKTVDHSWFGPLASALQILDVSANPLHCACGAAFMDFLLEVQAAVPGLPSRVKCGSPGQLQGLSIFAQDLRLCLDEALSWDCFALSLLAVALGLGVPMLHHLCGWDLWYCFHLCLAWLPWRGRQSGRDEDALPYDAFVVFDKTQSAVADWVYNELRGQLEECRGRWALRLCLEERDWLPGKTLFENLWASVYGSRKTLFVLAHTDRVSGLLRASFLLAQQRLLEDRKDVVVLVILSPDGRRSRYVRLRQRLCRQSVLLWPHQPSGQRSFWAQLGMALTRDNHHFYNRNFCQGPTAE
Nature of the assay: TLR9 inhibition reporter assay (HEK-Blue cells, SEAP reporter, ODN2006 stimulation). To be noted: HEK-Blue cells overexpressing human TLR9, SEAP reporter, ODN2006 5 nM. The essentials: as §1
A general note: Reporter assays use an easily measured gene product as a stand-in for the process of interest.

The target of assay [3] is T3, human TLR8 (Homo sapiens, UniProt Q9NR97).
T3 construct: host or cells: HEK-Blue cells
T3 sequence (Q9NR97 27-1041): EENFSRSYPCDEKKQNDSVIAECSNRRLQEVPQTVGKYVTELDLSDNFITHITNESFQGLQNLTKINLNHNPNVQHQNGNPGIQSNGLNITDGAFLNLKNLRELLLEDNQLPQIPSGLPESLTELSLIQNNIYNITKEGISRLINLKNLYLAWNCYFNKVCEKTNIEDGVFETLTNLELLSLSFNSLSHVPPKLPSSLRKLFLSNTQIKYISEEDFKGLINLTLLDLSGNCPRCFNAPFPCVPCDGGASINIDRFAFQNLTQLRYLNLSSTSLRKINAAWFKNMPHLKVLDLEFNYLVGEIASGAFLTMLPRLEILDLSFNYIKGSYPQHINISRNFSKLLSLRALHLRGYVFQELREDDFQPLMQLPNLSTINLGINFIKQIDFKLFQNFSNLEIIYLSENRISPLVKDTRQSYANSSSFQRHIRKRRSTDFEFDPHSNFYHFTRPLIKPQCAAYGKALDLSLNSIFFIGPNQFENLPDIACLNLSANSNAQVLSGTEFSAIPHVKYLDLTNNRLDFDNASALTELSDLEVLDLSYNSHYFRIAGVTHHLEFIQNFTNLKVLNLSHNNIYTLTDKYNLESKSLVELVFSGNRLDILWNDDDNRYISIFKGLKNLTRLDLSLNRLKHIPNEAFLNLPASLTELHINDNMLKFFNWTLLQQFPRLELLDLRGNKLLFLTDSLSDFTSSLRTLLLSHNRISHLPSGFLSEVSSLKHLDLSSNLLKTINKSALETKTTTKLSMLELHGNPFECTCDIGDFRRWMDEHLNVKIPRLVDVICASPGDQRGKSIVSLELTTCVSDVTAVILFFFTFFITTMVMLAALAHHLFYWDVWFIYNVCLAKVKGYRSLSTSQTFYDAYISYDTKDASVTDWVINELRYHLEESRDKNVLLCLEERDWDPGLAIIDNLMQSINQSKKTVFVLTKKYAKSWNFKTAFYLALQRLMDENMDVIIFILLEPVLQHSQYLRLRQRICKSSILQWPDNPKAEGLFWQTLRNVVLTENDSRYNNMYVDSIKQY
Nature of the assay: TLR8 inhibition reporter assay (HEK-Blue cells, SEAP reporter, R848 stimulation). To be noted: HEK-Blue cells overexpressing human TLR8, SEAP reporter, R848 15.9 μM; read-out: TLR8 IC50. The essentials: as §1

A word on the IC50: it is the concentration at which inhibition is half-maximal. `COC(C)(C)CNC1CCN(c2nc3c(C(C)C)c(-c4cn5ncnc5c(C)c4C)[nH]c3s2)CC1` [Example 294, 1-(5-(7,8-dimethyl-[1,2,4]triazolo[1,5-a]pyridin-6-yl)-6-isopropyl-4H-pyrrolo[3,2-d]thiazol-2-yl)-N-(2-methoxy-2-methylpropyl)piperidin-4-amine]: the values for the IC50 in assay [1], in assay [2] and in assay [3] were 7.97 nM, 8990 nM and 0.42 nM, respectively.
For `Cc1c(-c2[nH]c3sc(N4CCC(NCC5(C)COC5)CC4)nc3c2C(C)C)cn2ncnc2c1C` [Example 295, 1-(5-(7,8-dimethyl-[1,2,4]triazolo[1,5-a]pyridin-6-yl)-6-isopropyl-4H-pyrrolo[3,2-d]thiazol-2-yl)-N-((3-methyloxetan-3-yl)methyl) piperidin-4-amine] the same measures were 4.94 nM, 9710 nM and 0.28 nM.
For `Cc1c(-c2[nH]c3sc(N4CCC(NC5COC5)CC4)nc3c2C(C)C)cn2ncnc2c1C` [Example 296, 1-(5-(7,8-dimethyl-[1,2,4]triazolo[1,5-a]pyridin-6-yl)-6-isopropyl-4H-pyrrolo[3,2-d]thiazol-2-yl)-N-(oxetan-3-yl)piperidin-4-amine], in that order: 3.45 nM, 33800 nM and 0.73 nM.
For `Cc1c(-c2[nH]c3sc(N4CCC(NC(C)C)CC4)nc3c2C(C)C)cn2ncnc2c1C` [Example 297, 1-(5-(7,8-dimethyl-[1,2,4]triazolo[1,5-a]pyridin-6-yl)-6-isopropyl-4H-pyrrolo[3,2-d]thiazol-2-yl)-N-isopropylpiperidin-4-amine], in that order: 2.25 nM, 8910 nM and 0.27 nM.
In the case of `CCN(C)C1CCN(c2nc3c(C(C)C)c(-c4cn5ncnc5c(C)c4C)[nH]c3s2)CC1` [Example 298, 1-(5-(7,8-dimethyl-[1,2,4]triazolo[1,5-a]pyridin-6-yl)-6-isopropyl-4H-pyrrolo[3,2-d]thiazol-2-yl)-N-ethyl-N-methylpiperidin-4-amine], the IC50 in assay [1] worked out at 1.56 nM; in assay [2] it was 7410 nM; in assay [3], 0.43 nM.
Take `Cc1c(-c2[nH]c3sc(N4CCC(N)CC4)nc3c2C(C)C)cn2ncnc2c1C` [Example 299, 1-(5-(7,8-dimethyl-[1,2,4]triazolo[1,5-a]pyridin-6-yl)-6-isopropyl-4H-pyrrolo[3,2-d]thiazol-2-yl)piperidin-4-amine]: the figures for the IC50 in assay [1], in assay [2] and in assay [3] were 1.42 nM, 12700 nM and 0.72 nM, respectively.
Turning to `Cc1c(-c2[nH]c3sc(N4CC5(CN(CC(C)C)C5)C4)nc3c2C(C)C)cn2ncnc2c1C` [Example 300, 5-(7,8-dimethyl-[1,2,4]triazolo[1,5-a]pyridin-6-yl)-2-(6-isobutyl-2,6-diazaspiro[3.3]heptan-2-yl)-6-isopropyl-4H-pyrrolo[3,2-d]thiazole], the IC50 in assay [1] came to 10.7 nM; in assay [2] it was 10100 nM; in assay [3] it was 3.24 nM.
As for `Cc1c(-c2[nH]c3sc(N4CC5(CN(CC6CCOCC6)C5)C4)nc3c2C(C)C)cn2ncnc2c1C` [Example 301, 5-(7,8-dimethyl-[1,2,4]triazolo[1,5-a]pyridin-6-yl)-6-isopropyl-2-(6-((tetrahydro-2H-pyran-4-yl)methyl)-2,6-diazaspiro[3.3]heptan-2-yl)-4H-pyrrolo[3,2-d]thiazole], the IC50 in assay [1] was found to be 7.77 nM; in assay [2], 12300 nM; in assay [3], 1.53 nM.
Regarding `Cc1c(-c2[nH]c3sc(N4CC5(CN(CC(C)(C)O)C5)C4)nc3c2C(C)C)cn2ncnc2c1C` [Example 303, 1-(6-(5-(7,8-dimethyl-[1,2,4]triazolo[1,5-a]pyridin-6-yl)-6-isopropyl-4H-pyrrolo[3,2-d]thiazol-2-yl)-2,6-diazaspiro[3.3]heptan-2-yl)-2-methylpropan-2-ol], the IC50 is 7.99 nM in assay [1], 26400 nM in assay [2] and 0.93 nM in assay [3].
Take `Cc1c(-c2[nH]c3sc(N4CC5(CN(CCS(C)(=O)=O)C5)C4)nc3c2C(C)C)cn2ncnc2c1C` [Example 304, 5-(7,8-dimethyl-[1,2,4]triazolo[1,5-a]pyridin-6-yl)-6-isopropyl-2-(6-(2-(methylsulfonyl)ethyl)-2,6-diazaspiro[3.3]heptan-2-yl)-4H-pyrrolo[3,2-d]thiazole]: the 50% inhibitory concentration (IC50) was 8.2 nM in assay [1], 35600 nM in assay [2] and 19.2 nM in assay [3].
For `Cc1c(-c2[nH]c3sc(N4CCNC[C@H]4C)nc3c2C(C)C)cn2ncnc2c1C` [Example 308, (R)-5-(7,8-dimethyl-[1,2,4]triazolo[1,5-a]pyridin-6-yl)-6-isopropyl-2-(2-methylpiperazin-1-yl)-4H-pyrrolo[3,2-d]thiazole, HCl], in that order: 0.18 nM, 15800 nM and 0.09 nM.
